Columns and labels:
[1] = test system: MDA-MB-231 tumor model; assay: MDA-MB-231 lung metastasis model; type: in vivo, mice; conditions: peptide i.v. 14.2 mg/g 3 times a week for 3 weeks; crizotinib oral 25 mg/kg; vs saline and control peptide
Experimental: (§1) For animal models, 6-week-old to 8-week-old Balb/c female mice were purchased from Orient Bio. Mice were cared for and maintained in conformance with the Guidelines of the Institutional Animal Care and Use Committee (IACUC) of Kyungpook National University. Tumors were prepared by injecting 1×10^6 MDA-MB-231 cells via tail vein to develop lung metastatic model in Balb/c female nude mice and 1×10^6 4T1 cells into the lower left mammary fat pad of Balb/c wild type female mice.
(§2) Tumor-bearing mice were subjected to randomization and grouping when the size of the tumors reached approximately 100 mm^3. Each peptide was intravenously injected via the tail vein of mice ([…] of body weight, 3 times a week for 3 weeks). Crizotinib was given through orally (25 mg/kg of body weight, three times a week for 3 weeks) based on a previous study. Tumor size was measured using a digital caliper, and tumor volume was calculated using the following formula: Volume=(L×W×H)/2 (L: length, longest dimension, W: width, shorter dimension, parallel to the mouse body, and H: height, perpendicular to the length and width). Mice were checked for tumor ulceration. At the end of the treatment, the mice were sacrificed, and the lung and liver were isolated and checked for metastatic tumor masses.
MDA-MB231-luc cells (1×10^6 in 0.1 ml PBS) were injected into the lateral tail vein of female nude mice. The mice were then segregated into groups (n=10 per group) based on initial IVIS image. Starting from day 0, mice were administered CD44v6 peptides by intravenously injected via the tail vein of mice ([…] of body weight, 3 times a week for 3 weeks). After the last IVIS imaging, mice were euthanized and lung tissues were removed from each mouse for metastatic tumor masses immunohistochemical analyses.
(§3) At the end of the treatment, mouse blood was collected and hematological factors were analyzed by DGMIF (Daegu-Gyeongbuk Medical Innovation Foundation) (Daegu, Korea).
CD44v6 Peptides was stable without degradation for at least 24 hours in the presence of serum.

[2] = test system: 4T1 tumor model; assay: Anti-tumor therapy in 4T1 tumor model; type: in vivo, mice; conditions: for tumor and metastatic growth (bioluminescence imaging): peptide i.v. 14.2 mg/kg thrice a week, crizotinib oral 25 mg/kg thrice a week, vs saline
Experimental: as §1, §2, §3
In vivo anti-tumor activity was further evaluated in 4T1 orthotopic mice models. In relevant with the biodistribution and pharmacokinetic results, in vivo therapy was started by administrating 14.2 mg/kg thrice a week via intravenous injection of CD44v6 peptides and 25 mg/kg crizotinib thrice a week orally.

[3] = test system: MCF-7 cells
[4] = test system: c-Met and Erk phosphorylation in MDA-MB-231 cells; conditions: MDA-MB-231, HGF 25-50 ng/mL; peptides 5 ug/ml each, combination 10 μg/ml
Experimental: Serum-starved cells (24 hours) were induced with the growth factor HGF (25-50 ng/mL), at 37° C. for 10 min. Where indicated, the cells were treated with a CD44v6 specific peptide or a control peptide (50 μg/ml) at 37° C. for 10 min before induction and cells were washed with ice-cold phosphate-buffered saline (PBS). To detect activated Erk and activated c-Met, cells were lysed in boiling sodium dodecyl sulfate (SDS) sample buffer containing 100 mM dithiothreitol (DTT) and subjected to Western blot analysis using antibodies against phosphorylated Erk and phosphorylated c-Met. The loading control was performed on the same blot, stripped (62.5 mM Tris, pH 6.8, 2% SDS, 0.8% DTT), and probed with the Erk and c-Met antibodies. Blots were stained using the enhanced chemiluminescence system (Thermo Fisher Scientific). Bands in Western blot analysis were quantified with the program ImageJ (National Institutes of Health).
In the present invention, MDA-MB-231 and 4T1 cells were serum-starved (24 hours) and were induced with the growth factor HGF (25-50 ng/mL) at 37° C. for 10 min. The cells were treated with a CD44v6 specific peptide or a control peptide (100 ng/ml) at 37° C. for 10 min before induction. To detect activated Erk and activated c-Met, cells were lysed and subjected to Western blot analysis using antibodies against phosphorylated Erk and phosphorylated c-Met. […]

[5] = test system: CD44 variant 6 expressing cells MDA-MB231, HELA, 4T1 and PANC-1; conditions: CD44v6 expressing cells
Experimental: (§4) After complete adhesion, the cell culture medium was replaced with fresh medium containing FITC labeled peptides (10 μM) and then the cells were incubated at 37° C. for 1 h and cells were washed with PBS for 3-5 min (thrice) and stained with CD44v6 antibody (Santa cruz), followed by Alexa 594-labeled goat anti-mouse IgG secondary antibody.
(§5) To screen CD44v6-binding peptides, the present inventors first prepared HEK-293 cells transfected with CD44v6-GFP plasmid by transient transfection. […] Twenty phage clones were randomly picked from the third, fourth, and fifth rounds and the peptide-coding DNA inserts of the phage clones were sequenced.

[6] = test system: MCF-7; conditions: CD44v6 non-expressing cells
Experimental: as §4, §5

[7] = test system: 4T1 orthotopic mice; conditions: anti-CD44v6 antibody staining
Experimental: To analyze ex vivo organ distribution, animals were euthanized at 6 h post-injection with CO2. All major organs (liver, kidney, spleen, heart, and lung) along with tumor tissues were isolated and washed in PBS and ex vivo fluorescence images were taken using the IVIS Lumina III imaging system. Fluorescence intensity within the region of interest (ROI) of each organs was analyzed. Tumor tissues were further fixed with 4% paraformaldehyde overnight and rapidly frozen. Tissue slices (8-μm thick) were prepared using a cryo-microtome and stained with CD44v6 antibody (Santa Cruz), followed by Alexa 594-labeled goat anti-mouse IgG secondary antibody. […]
In vivo fluorescence images were taken before or after injection at various time points (1, 2, 4 and 6 h, respectively) with flamma 675 was injected at the same concentration and method. […]
Ex vivo fluorescence images of excised tumor and organs collected at 6 h post-injection. All major organs (liver, kidney, spleen, heart, and lung) along with tumor tissues were isolated and washed in PBS and ex vivo fluorescence images were taken (n=3) with FPR-675 fluorophore excitation at 675 nm and emission at 698 nm. Fluorescence intensity within the region of interest (ROI) of each organ was analyzed.

[8] = test system: MDA-MB-231 xenograft; conditions: anti-CD44v6 antibody staining
Experimental: Tumor tissues were further fixed with 4% paraformaldehyde overnight and rapidly frozen. Tissue slices (8-μm thick) were prepared using a cryo-microtome and stained with CD44v6 antibody (Santa Cruz), followed by Alexa 594-labeled goat anti-mouse IgG secondary antibody.

[9] = test system: CD44v6; conditions: biotinylated peptide + avidin bead + cell lysate
Experimental: (§6) Biotinylated CD44v6 peptides was incubated with monomer avidin magnetic beads (Bioclone Inc.) for 30-60 min at room temperature with gentle rotation to be used for peptide pulldown, prior to incubation with cell lysates. Cells were lysed using cell lysis reagent (Thermo scientific) with protease inhibitors. After the first incubation of biotinylated peptide+avidin bead (complex 1) were washed with PBS and complex is incubated with cell lysate for 30-60 min at room temperature with gentle rotation. Bound biotinylated peptide+avidin bead+cell lysate (complex 2) were eluted by 1× blocking buffer/elution buffer for 5-10 min incubation after elution and the elute was subjected to western blot analysis using CD44v6 antibody (Millipore) to pull down the specific protein.
(§7) Biotinylated peptide+avidin bead+cell lysate (complex 2) were eluted for western blot analysis using CD44v6 antibody to pull down the specific protein.

[10] = molecular target: wild-type CD44 (Homo sapiens, UniProt P16070); conditions: biotinylated peptide + avidin bead + cell lysate
Experimental: as §6, §7

[11] = test system: c-Met; conditions: biotinylated peptide + avidin bead + cell lysate
[12] = test system: CD44v6 silenced MDA-MB-231 cells; conditions: for binding of FITC labelled peptide after silencing of CD44v6 gene (flow cytometry): MDA-MB-231, CD44v6 siRNA; for binding of FITC labelled peptide after siRNA treatment (immunofluorescence staining): MDA-MB-231, siRNA 100 nmol
Experimental: Control siRNA (50-[…] (dTdT) 30) and glyceraldehyde-3 phosphate dehydrogenase (GAPDH) siRNA (50-[…] (dTdT)-30) were also purchased from Bioneer, Daejeon, Korea. The transfection was performed using Lipofectamine 2000 (Invitrogen, Karlsruhe, Germany). Two rounds of transfection with an interval of 24 h between were performed. 48 h after the first transfection the cells were serum-starved for 24 h and then subjected to further treatment.
MDA-MB-231 cells were serum-starved for 24 hours and then subjected to further treatment. SiRNAs v6-1 and v6-2 transfected and kept it for different time interval to achieve the CD44v6 expression inhibition.

[13] = test system: MDA-MB-231 cells; conditions: MDA-MB-231, dose-dependent

Sequence of CD44v6 (P16070 386-428 limits assumed): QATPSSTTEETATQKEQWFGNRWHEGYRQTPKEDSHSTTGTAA
Sequence of wild-type CD44 (P16070 21-361 isoform P16070-12 limits assumed): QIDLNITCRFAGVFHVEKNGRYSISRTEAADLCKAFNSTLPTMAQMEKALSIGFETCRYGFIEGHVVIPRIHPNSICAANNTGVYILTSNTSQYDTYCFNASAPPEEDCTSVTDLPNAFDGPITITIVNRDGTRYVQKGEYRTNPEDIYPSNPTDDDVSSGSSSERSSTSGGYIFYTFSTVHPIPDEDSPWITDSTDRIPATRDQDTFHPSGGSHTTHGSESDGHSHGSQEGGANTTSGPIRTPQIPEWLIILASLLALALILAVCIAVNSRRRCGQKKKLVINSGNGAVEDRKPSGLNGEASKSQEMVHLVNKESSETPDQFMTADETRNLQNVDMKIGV

Compound: C[C@@H](Oc1cc(-c2cnn(C3CCNCC3)c2)cnc1N)c1c(Cl)ccc(F)c1Cl [crizotinib, reference compound]
- metastasis (bioluminescence imaging) [1]: inhibited metastatic growth
- tumor growth (tumor volume) ([2]; 4T1 bearing mice): Slight reduction of tumor volume
- tumor and metastatic growth (bioluminescence imaging) [2]: slightly inhibited tumor and metastatic growth

Compound: CNLNTIDTC [v6Pep-1]
- binding of FITC labelled peptide after pre-treatment with anti-CD44v6 blocking antibody [3]: minimal effect
- metastasis (bioluminescence imaging) [1]: inhibited metastatic growth
- phosphorylation of c-Met and its downstream target Erk [4]: drastically reduced the phosphorylation
- binding to MDA-MB-231, 4T1 and PANC-1 [5]: bind specifically
- binding to MCF-7 [6]: did not show specific binding
- immunohistochemical examination of tumor tissues [7]: co-localized with CD44v6
- immunohistochemical examination of tumor tissues [8]: co-localized with CD44v6
- pull down of CD44v6 [9]: pulled down
- pull down of wild-type CD44 [10]: not pulled down
- pull down of c-Met [11]: pulled down
- binding of FITC labelled peptide after silencing of CD44v6 gene (flow cytometry) [12]: binding got inhibited
- binding of FITC labelled peptide after siRNA treatment (immunofluorescence staining) [12]: negligible binding
- tumor and metastatic growth (bioluminescence imaging) [2]: slightly inhibited tumor and metastatic growth
- binding of FITC labelled peptide after pre-treatment with anti-CD44v6 blocking antibody [13]: significantly reduced the binding

Compound: CNEWQLKSC [v6Pep-2]
- binding of FITC labelled peptide after pre-treatment with anti-CD44v6 blocking antibody [3]: minimal effect
- metastasis (bioluminescence imaging) [1]: inhibited metastatic growth
- phosphorylation of c-Met and its downstream target Erk [4]: drastically reduced the phosphorylation
- binding to MDA-MB-231, 4T1 and PANC-1 [5]: bind specifically
- binding to MCF-7 [6]: did not show specific binding
- immunohistochemical examination of tumor tissues [7]: co-localized with CD44v6
- immunohistochemical examination of tumor tissues [8]: co-localized with CD44v6
- pull down of CD44v6 [9]: pulled down
- pull down of wild-type CD44 [10]: not pulled down
- binding of FITC labelled peptide after silencing of CD44v6 gene (flow cytometry) [12]: binding got inhibited
- binding of FITC labelled peptide after siRNA treatment (immunofluorescence staining) [12]: negligible binding
- tumor and metastatic growth (bioluminescence imaging) [2]: slightly inhibited tumor and metastatic growth
- binding of FITC labelled peptide after pre-treatment with anti-CD44v6 blocking antibody [13]: significantly reduced the binding

— patent publication US11192920B2, “Peptides for binding to CD44v6 and use thereof” (KYUNGPOOK NATIONAL UNIVERSITY INDUSTRY-ACADEMIC COOPERATION …, priority 2017, dated 2021)
